Where a SMILES comes first, the peptide text is derived from it. [ ]: non-standard residue; d: D form.
What was measured:
[1] = tested on: clinical strains of Streptococcus pneumoniae; assay: MIC, clinical strains of Streptococcus pneumoniae; type: cell-based; set-up: unit: µg/mL; conditions: microdilution, Muller Hinton broth-cation adjusted, 0.02% BSA, 0.2% acetic acid
Description: (§1) Minimum inhibition concentrations (MICs) were determined against Escherichia coli (ATCC 25922), Staphylococcus aureus (ATCC 25923), Klebsiella pneumoniae (ATCC 10031) and Pseudomonas aeruginosa (ATCC 27853). Also clinical strains of E. coli, K. pneumoniae, E. cloacae, P. aeruginosa, Serratia marcescens, Proteus mirabilis, S. pneumoniae, Acinetobacter baumannii, A. johnsonii and S. aureus were used for MICs assays. Additionally, clinical strains of yeast including Candida albicans, C. glabrata, C. parapsilosis and C. quillermondiae were used. The susceptibility of these microorganisms to Chain peptides were determined using micro broth dilution assay. Colonies of the respective microorganism from Muller Hinton (MH) agar plates incubated overnight were suspended in MH broth media and final concentration of microorganism was adjusted to 5.0×10^5 cfu/ml. An aliquot of 10 μl of each Chain peptide, or gentamicin, tetracycline as reference antibiotics were added in differing concentrations along with 90 μl of bacterial suspension to 96 well polypropylene plates and incubated at 37° C. for 20 to 24 hours. Concentrations of Chain peptides and reference antibiotics ranged from 0.125 to 128 μg/ml and the MICs were recorded as the lowest concentration with no visual growth of bacteria. Similarly, antifungal MICs were tested in Potato dextrose broth.
(§2) Clinical strains of yeasts including Candida albicans, C. glabrata, C. parapsilosis and C. quillermondiae were also tested with the 12 Chain peptides. The minimum inhibitory concentration (MICs) varied between these peptides and are presented in Tables 4a, 4b, 4c and 5a, 5b, 5c. Peptides Chain 105, 201 and 308 are broad spectrum antimicrobials with MICs between 0.5-32 μg/ml against all the bacteria and yeasts tested, except Serratia marcescens and Proteus mirabilis, against which the MICs were between 64-128 μg/ml. Peptide Chain 306 has narrow spectrum activity against E.coli at 1 μg/ml and for the rest of the bacterial strains at >32 μg/ml (FIG. 10).

[2] = tested on: clinical strains of Candida albicans; assay: MIC, clinical yeast strains, Candida albicans; type: cell-based; set-up: unit: μg/ml
How it was run: (§3)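 MH broth; 5.0×10^5 cfu/ml; peptides 0.125–128 μg/ml; 37° C., 20–24 h; visual no-growth endpoint. Fungal MICs in potato dextrose broth.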

[3] = tested on: clinical strains of Pseudomonas aeruginosa; assay: MIC, clinical strains of P. aeruginosa; type: cell-based; set-up: unit: μg/ml; conditions: microdilution, Muller Hinton broth-cation adjusted, 0.02% BSA, 0.2% acetic acid
Description: as §1, §2

[4] = tested on: clinical strains of C. parapsilosis; assay: MIC, clinical yeast strains, C. parapsilosis; type: cell-based, Candida parapsilosis; set-up: unit: μg/ml
How it was run: as §3

[5] = tested on: clinical strains of Staphylococcus aureus; assay: MIC, clinical strains of S. aureus; type: cell-based; set-up: unit: μg/ml; conditions: microdilution, Muller Hinton broth-cation adjusted, 0.02% BSA, 0.2% acetic acid
Description: as §1, §2

[6] = tested on: clinical strains of C. glabrata; assay: MIC, clinical yeast strains, C. glabrata; type: cell-based, Candida glabrata; set-up: unit: μg/ml
How it was run: as §3

[7] = tested on: clinical strains of Escherichia coli; assay: MIC, clinical strains of E. coli; type: cell-based; set-up: unit: μg/ml; conditions: microdilution, Muller Hinton broth-cation adjusted, 0.02% BSA, 0.2% acetic acid
Description: as §1, §2

[8] = tested on: clinical strains of Klebsiella pneumoniae; assay: MIC, clinical strains of K. pneumoniae; type: cell-based; set-up: unit: μg/ml; conditions: microdilution, Muller Hinton broth-cation adjusted, 0.02% BSA, 0.2% acetic acid
Description: as §1, §2

[9] = tested on: clinical strains of Enterobacter cloacae; assay: MIC, clinical strains of Enterobacter cloacae; type: cell-based; set-up: unit: μg/ml; conditions: microdilution, Muller Hinton broth-cation adjusted, 0.02% BSA, 0.2% acetic acid
Description: as §1, §2

[10] = tested on: clinical strains of C. quillermondiae; assay: MIC, clinical yeast strains, C. quillermondiae; type: cell-based; conditions: C. quillermondiae clinical yeast strain 1
How it was run: as §3

[11] = tested on: clinical strains of Proteus mirabilis; assay: MIC, clinical strains of Proteus mirabilis; type: cell-based; set-up: unit: µg/mL; conditions: microdilution, Muller Hinton broth-cation adjusted, 0.02% BSA, 0.2% acetic acid
Description: as §1, §2

[12] = tested on: clinical strains of Serratia marcescens; assay: MIC, clinical strains of Serratia marcescens; type: cell-based; set-up: unit: µg/mL; conditions: microdilution, Muller Hinton broth-cation adjusted, 0.02% BSA, 0.2% acetic acid
Description: as §1, §2

CC(C)C[C@@H](NC(=O)[C@@H](Cc1c[nH]c2ccccc12)NC(=O)[C@@H](Cc1ccccc1)NC(=O)[C@@H](Cc1c[nH]c2ccccc12)NC(=O)[C@@H](CCCCN)NC(=O)[C@@H](CCCNC(=N)N)NC(=O)[C@H](N)Cc1c[nH]c2ccccc12)C(=O)N[C@H](Cc1ccccc1)C(=O)N[C@H](CCCCN)C(=O)N[C@H](CCCCN)C(=O)N[C@H](CCCNC(=N)N)C(=O)O [Chain309D] (H-[dW][dR][dK][dW][dF][dW][dL][dF][dK][dK][dR]-OH) showed a Minimum inhibitory concentration ([1]; Streptococcus pneumoniae clinical strain 1) of 64, a Minimum inhibitory concentration ([1]; Streptococcus pneumoniae clinical strain 2) of 64 and a Minimum inhibitory concentration ([1]; Streptococcus pneumoniae clinical strain 3) of 64. It also gave a Minimum inhibitory concentration ([1]; Streptococcus pneumoniae clinical strain 4) of 64, a Minimum inhibitory concentration ([1]; Streptococcus pneumoniae clinical strain 5) of 64 and a Minimum inhibitory concentration ([2]; Candida albicans clinical yeast strain 1) of 32. It also gave a Minimum inhibitory concentration ([2]; Candida albicans clinical yeast strain 2) of 32, a Minimum inhibitory concentration ([2]; Candida albicans clinical yeast strain 3) of 16 and a Minimum inhibitory concentration ([2]; Candida albicans clinical yeast strain 4) of 16. It also gave a Minimum inhibitory concentration ([2]; Candida albicans clinical yeast strain 5) of 32, a Minimum inhibitory concentration ([3]; Pseudomonas aeruginosa clinical strain 1) of 16 and a Minimum inhibitory concentration ([3]; Pseudomonas aeruginosa clinical strain 2) of 32. It also gave a Minimum inhibitory concentration ([3]; Pseudomonas aeruginosa clinical strain 3) of 16, a Minimum inhibitory concentration ([3]; Pseudomonas aeruginosa clinical strain 4) of 32 and a Minimum inhibitory concentration ([3]; Pseudomonas aeruginosa clinical strain 5) of 8. For the same molecule, the Minimum inhibitory concentration ([4]; C. parapsilosis clinical yeast strain 1) was 64, the Minimum inhibitory concentration ([4]; C. parapsilosis clinical yeast strain 2) was 64 and the Minimum inhibitory concentration ([4]; C. parapsilosis clinical yeast strain 3) was 32. It also gave a Minimum inhibitory concentration ([4]; C. parapsilosis clinical yeast strain 4) of 16, a Minimum inhibitory concentration ([5]; Staphylococcus aureus clinical strain 1) of 8 and a Minimum inhibitory concentration ([5]; Staphylococcus aureus clinical strain 2) of 16. The Minimum inhibitory concentration ([5]; Staphylococcus aureus clinical strain 3) was 8, the Minimum inhibitory concentration ([5]; Staphylococcus aureus clinical strain 4) was 8 and the Minimum inhibitory concentration ([5]; Staphylococcus aureus clinical strain 5) was 8. The Minimum inhibitory concentration ([6]; C. glabrata clinical yeast strain 1) was 32, the Minimum inhibitory concentration ([6]; C. glabrata clinical yeast strain 2) was 64 and the Minimum inhibitory concentration ([6]; C. glabrata clinical yeast strain 3) was 4. It also gave a Minimum inhibitory concentration ([6]; C. glabrata clinical yeast strain 4) of 128, a Minimum inhibitory concentration ([7]; Escherichia coli clinical strain 1) of 0.5 and a Minimum inhibitory concentration ([7]; Escherichia coli clinical strain 2) of 32. For the same molecule, the Minimum inhibitory concentration ([7]; Escherichia coli clinical strain 3) was 16, the Minimum inhibitory concentration ([7]; Escherichia coli clinical strain 4) was 32 and the Minimum inhibitory concentration ([7]; Escherichia coli clinical strain 5) was 16. It also gave a Minimum inhibitory concentration ([8]; Klebsiella pneumoniae clinical strain 1) of 128, a Minimum inhibitory concentration ([8]; Klebsiella pneumoniae clinical strain 2) of 32 and a Minimum inhibitory concentration ([8]; Klebsiella pneumoniae clinical strain 3) greater than 128. It also gave a Minimum inhibitory concentration ([8]; Klebsiella pneumoniae clinical strain 4) of 32, a Minimum inhibitory concentration ([8]; Klebsiella pneumoniae clinical strain 5) of 128 and a Minimum inhibitory concentration ([9]; Enterobacter cloacae clinical strain 1) greater than 128. It also gave a Minimum inhibitory concentration ([9]; Enterobacter cloacae clinical strain 2) of 128, a Minimum inhibitory concentration ([9]; Enterobacter cloacae clinical strain 3) of 64 and a Minimum inhibitory concentration ([9]; Enterobacter cloacae clinical strain 4) of 64. The Minimum inhibitory concentration ([9]; Enterobacter cloacae clinical strain 5) was 32, the Minimum inhibitory concentration [10] was 8 and the Minimum inhibitory concentration ([11]; Proteus mirabilis clinical strain 1) was greater than 128. It also gave a Minimum inhibitory concentration ([11]; Proteus mirabilis clinical strain 2) greater than 128, a Minimum inhibitory concentration ([11]; Proteus mirabilis clinical strain 3) greater than 128 and a Minimum inhibitory concentration ([11]; Proteus mirabilis clinical strain 4) greater than 128. For the same molecule, the Minimum inhibitory concentration ([11]; Proteus mirabilis clinical strain 5) was greater than 128, the Minimum inhibitory concentration ([12]; Serratia marcescens clinical strain 1) was greater than 128 and the Minimum inhibitory concentration ([12]; Serratia marcescens clinical strain 2) was greater than 128. The Minimum inhibitory concentration ([12]; Serratia marcescens clinical strain 3) was greater than 128, the Minimum inhibitory concentration ([12]; Serratia marcescens clinical strain 4) was greater than 128 and the Minimum inhibitory concentration ([12]; Serratia marcescens clinical strain 5) was greater than 128.

Source: patent publication US11096985B2, “Antimicrobial peptides, their variants and uses” (priority 2015, dated 2021)
